From the supplement of paper PMC10307832

Key:
Assay in all cases: relative viability (nuclei count vs DMSO), 5 days (fraction); higher = more cells survive
[1] = compound: CCn1c(-c2nonc2N)nc2c(C#CC(C)(C)O)ncc(OC[C@H]3CCCNC3)c21 + COc1cc2c(Oc3ccc(NC(=O)C4(C(=O)Nc5ccc(F)cc5)CC4)cc3F)ccnc2cc1OCCCN1CCOCC1 [Foretinib] (partner 0.25 µM)
In short: (§1)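 Relative viability was taken as the ratio of nuclei in treated wells to nuclei in vehicle wells. Lung cancer cell lines in 1536-well plates received compounds by pin tool one day after seeding, either one drug alone or a fixed anchor-drug dose plus five library-drug doses (not always all listed) in √10 steps. Nuclei were counted on 4× images after 5 days of treatment, and values are medians of duplicate plates.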

[2] = compound: CCn1c(-c2nonc2N)nc2c(C#CC(C)(C)O)ncc(OC[C@H]3CCCNC3)c21 + CC(=O)Nc1cccc(-n2c(=O)n(C3CC3)c(=O)c3c(Nc4ccc(I)cc4F)n(C)c(=O)c(C)c32)c1 [Trametinib] (partner 0.02 µM)
In short: as §1

BAM7 + Dasatinib = compound: CCOC1=CC=CC=C1N=NC2=C(NN(C2=O)C3=NC(=CS3)C4=CC=CC=C4)C [BAM7] + Cc1nc(Nc2ncc(C(=O)Nc3c(C)cccc3Cl)s2)cc(N2CCN(CCO)CC2)n1 [Dasatinib] (partner 0.075 µM)
In short: as §1

BAM7 + Bortezomib = compound: CCOC1=CC=CC=C1N=NC2=C(NN(C2=O)C3=NC(=CS3)C4=CC=CC=C4)C [BAM7] + CC(C)C[C@H](NC(=O)[C@H](Cc1ccccc1)NC(=O)c1cnccn1)B(O)O [Bortezomib] (partner 0.002 µM)
In short: as §1

| Cell Line | relative viability ([1]; first compound 0.01 µM) | relative viability ([1]; first compound 0.03162 µM) | relative viability ([1]; first compound 0.1 µM) | relative viability ([1]; first compound 0.3162 µM) | relative viability ([1]; first compound 1 µM) | relative viability ([2]; first compound 0.01 µM) | relative viability ([2]; first compound 0.03162 µM) | relative viability ([2]; first compound 0.1 µM) | relative viability ([2]; first compound 0.3162 µM) | relative viability ([2]; first compound 1 µM) | relative viability (BAM7 + Dasatinib; first compound 0.5 µM) | relative viability (BAM7 + Dasatinib; first compound 5 µM) | relative viability (BAM7 + Dasatinib; first compound 15.81 µM) | relative viability (BAM7 + Dasatinib; first compound 50 µM) | relative viability (BAM7 + Bortezomib; first compound 0.5 µM) | relative viability (BAM7 + Bortezomib; first compound 5 µM) | relative viability (BAM7 + Bortezomib; first compound 15.81 µM) | relative viability (BAM7 + Bortezomib; first compound 50 µM) |
| --- | --- | --- | --- | --- | --- | --- | --- | --- | --- | --- | --- | --- | --- | --- | --- | --- | --- | --- |
| NCI-H3122 | 0.923 | 0.941 | 0.962 | 1 | 0.883 | 0.242 | 0.224 | 0.236 | 0.192 | 0.242 | 0.438 | 0.835 | 0.838 | 0.725 | 1.06 | 1.13 | 1.04 | 1.05 |
| COR-L23 | 0.835 | 1.08 | 0.903 | 1.02 | 1 | 0.625 | 0.565 | 0.486 | 0.382 | 0.373 | 0.476 | 0.481 | 0.385 | 0.502 | 1.03 | 1.06 | 0.845 | 0.916 |
| NCI-H2087 | 0.927 | 1.06 | 1.15 | 0.981 | 1.03 | 0.23 | – | 0.175 | 0.223 | 0.174 | 0.939 | 0.991 | 0.765 | 0.844 | 0.892 | 0.85 | 0.843 | 0.767 |
| LC-2-ad | 0.94 | 0.906 | 0.923 | 0.909 | 1.01 | 0.9 | 0.93 | 0.91 | 0.89 | 0.933 | 0.8 | 0.555 | 0.546 | 0.639 | 1.05 | 0.974 | 0.957 | 1 |
| NCI-H1915 | 1.11 | 1.1 | 1.08 | 1.01 | 1 | 0.293 | 0.3 | 0.299 | 0.281 | 0.308 | 0.321 | 0.327 | 0.279 | 0.303 | 0.988 | 1.01 | 1.09 | 1.03 |
| NCI-H2023 | 0.775 | 0.887 | 0.801 | 0.781 | 0.755 | 0.639 | 0.55 | 0.422 | 0.432 | 0.288 | 0.519 | 0.465 | 0.393 | 0.481 | 0.988 | 0.905 | 0.92 | 1.08 |
| COR-L 105 | 1.01 | 1 | 1.04 | 1.03 | 1.16 | 0.451 | 0.434 | 0.437 | 0.46 | 0.499 | 0.308 | 0.407 | 0.455 | 0.501 | 0.747 | 0.831 | 0.854 | 1.03 |
